Experiment [1] concerns the target T1R1/T1R3 receptor (Felis catus, UniProt E3UMS2). The experiment can be described thus: Activation of T1R1/T1R3 receptor by transmembrane compounds alone or with alanine, IMP, GMP, phenylalanine; HEK293 cells, calcium fluorescence (Example 5). Type of experiment: cell-based, cat. Particulars: for Max resp % of IMP +Alanine (20 mM): relative to IMP; for Thres +Alanine (20 mM) / Thres +IMP (0.2 mM): threshold concentration; for Max resp % of Ala +IMP (0.2 mM): relative to Ala; for Activity: Table 18, all transmembrane compounds tested, active / N/A (not active). From the text:
Methods: HEK293 cells that stably express T1R3 and inducibly express T1R1 were exposed to transmembrane compounds alone or in combination with one or more amino acids and/or one or more nucleotides to activate the umami receptor. Activation of the T1R1/T1R3 receptor was detected by a change in intracellular calcium levels using a calcium sensitive fluorescent dye. Cells that express T1R3 but not T1R1 were used as a control. A FLIPR® Tetra or a FlexStation® 3 was used for data capture.
In each experiment, serial dilutions of up to 10 mM of the transmembrane compound were added to the T1R1/T1R3-expressing cells.

Experiment [2] addresses cat T1R1/T1R3 receptor (Felis catus, UniProt E3UMS2). In words: cell-based. It counts as cell-based. The source says: Methods: HEK293 cells that stably express T1R3 and inducibly express T1R1 were exposed to nucleotide derivatives alone or in combination with one or more amino acids and/or one or more nucleotides to activate the umami receptor. Activation of the T1R1/T1R3 receptor was detected by a change in intracellular calcium levels using a calcium sensitive fluorescent dye and/or a luminescent reporter system. Cells that express T1R3 but not T1R1 were used as a control. A FLIPR® Tetra or a FlexStation® 3 was used for data capture.

Setting [3] is: in the presence of 20 mM alanine, read-out: EC50- with Ala.
Where [4] appears, read: in the presence of 20 mM alanine.
The mark [5] stands for this setting: in the presence of 20 mM alanine, relative to response with IMP.
[6] abbreviates: threshold amount that activates the receptor, in the presence of 20 mM alanine.

Structures can show the parent of a compound that is named as a salt. Where two headings read alike, the source gives them in different places. Where only a bound is given, the exact number is not on record here.

In the case of `COc1ccc(/C=C/C(=O)NC2CCCCC2C)cc1` (stereo not shown) [(E)-3-(4-methoxyphenyl)-N-(2-methylcyclohexyl) acrylamide], in experiment [1] (+Alanine (20 mM)), the “+Alanine (20 mM) Max resp % of IMP” value is 63.2 % of IMP, the “+Alanine (20 mM) Max resp ΔF/F” value is given as 0.785 ΔF/F, the “+Alanine (20 mM) Thres” value is given as 3 mM and the “Max resp % of IMP +Alanine (20 mM)” value is listed as 63.2%. In addition, the “Thres +Alanine (20 mM)” value in experiment [1] (+Alanine (20 mM)) was 3 mM. Further, in experiment [1], the “+IMP (0.2 mM) Max resp % of Ala” value is reported as 144.0 % of Ala, the “Max resp ΔF/F +IMP (0.2 mM)” value was 1.7725 ΔF/F, the “Max resp % of Ala +IMP (0.2 mM)” value amounted to 144.0% and the “Thres +IMP (0.2 mM)” value was 0.3 mM. For the same compound, the outcome in experiment [1] was active.
One may read the EC50 as the concentration that produces a half-maximal response. For `O=C(CN1C(=O)C(=O)N(Cc2ccccc2)C1=O)c1ccccc1` [1-benzyl-3-(2-oxo-2-phenylethyl)imidazolidine-2,4,5-trione], in experiment [1] (+Alanine (20 mM)), the “+Alanine (20 mM) Max resp % of IMP” value is recorded as 127.6 % of IMP, the “+Alanine (20 mM) Max resp ΔF/F” value is 1.3 ΔF/F, the “+Alanine (20 mM) Thres” value is 1 mM and the “Max resp % of IMP +Alanine (20 mM)” value stood at 127.6%. In addition, in experiment [1] (+Alanine (20 mM)), the “Thres +Alanine (20 mM)” value is recorded as 1 mM. Moreover, in experiment [1], the “+IMP (0.2 mM) Max resp % of Ala” value was 135.7 % of Ala, the “Max resp ΔF/F +IMP (0.2 mM)” value is 1.140 ΔF/F, the “Max resp % of Ala +IMP (0.2 mM)” value amounted to 135.7% and the “Thres +IMP (0.2 mM)” value was 0.08 mM. Further, the outcome in experiment [1] was active. For the same compound, in experiment [1] (compound alone in buffer, read-out: EC50 +buffer (alone)), the half-maximal effective concentration (EC50) was over 1000 µM. The concentration giving a half-maximal response (EC50) in experiment [1] (read-out: +Alanine (20 mM) + IMP (0.2 mM) EC50, +Alanine (20 mM) + IMP (0.2 mM)) was found to be 330 ± 40 µM. In addition, the EC50 in experiment [1] (read-out: EC50 +Alanine (20 mM) + IMP (0.2 mM), +Alanine (20 mM) + IMP (0.2 mM)) is 330 µM. Besides, in experiment [1] (read-out: EC50 +Alanine (20 mM), +Alanine (20 mM)), the EC50 is over 1000 µM.
`CNc1ncnc2c1ncn2[C@@H]1O[C@H](COP(=O)(O)O)[C@@H](O)[C@H]1O` [N6-Methyladenosine 5′-monophosphate]: in experiment [2], the “Max resp. (ΔF/F)” value was 0.9907 ΔF/F and the “Threshold” value was 0.020 mM. In addition, the outcome in experiment [2] (+Alanine (20 mM)) was active. Besides, the “Max. resp. % of IMP” value in experiment [2] (hek293 cells) is listed as 102.3 % of IMP. Also, the EC50 in experiment [2] (setting [3]) was 80 µM.
On to `Nc1ncnc2c1ncn2C1OC(COP(=O)(O)O)C(OP(=O)(O)O)C1O` (stereo not shown) [Adenosine 3′,5′-diphosphate sodium salt, adenosine 3′, 5′ diphosphate sodium salt], for which, in experiment [2], the result was active, the “Max resp. (ΔF/F)” value is 0.9578 ΔF/F and the “Threshold” value is recorded as 0.00025 mM. The “Max. resp. % of IMP” value in experiment [2] (hek293 cells) is given as 98.9 % of IMP. Moreover, the EC50 in experiment [2] (read-out: EC50- with Ala) is 1 µM.
For the compound “Guanosine 5′-monophosphomorpholidate 4-morpholine-N,N′-dicyclohexylcarboxamidine salt”, the result in experiment [2] (+Alanine (20 mM)) was active. The “Max resp. (ΔF/F)” value in experiment [2] (setting [4]) is 0.5121 ΔF/F. For the same compound, in experiment [2] (setting [3]), the EC50 came out at 1300 µM. Also, in experiment [2] (setting [5]), the “Max. resp. % of IMP” value was 52.9 % of IMP. The “Threshold” value in experiment [2] (setting [6]) is on record as 0.325 mM.
On to `Nc1ccn([C@H]2O[C@@H](COP(=O)(O)O)[C@H](O)[C@@H]2O)c(=O)n1` (stereo in doubt) [Cytidine 5′-monophosphate (CMP), Cytidine 5′-monophosphate], for which the result in experiment [2] was active.
As to `Nc1nc2c(ncn2[C@@H]2O[C@H](COP(=O)(O)OP(=O)(O)O)[C@@H](O)[C@H]2O)c(=O)[nH]1` [Guanosine 5′-diphosphate sodium salt, Guanosine 5′-diphosphate], in experiment [2], the outcome was active, the “Max resp. (ΔF/F)” value is 1.7550 ΔF/F and the “Threshold” value worked out at 0.050 mM. The “Max. resp. % of IMP” value in experiment [2] (hek293 cells) is listed as 141.2 % of IMP. In experiment [2] (read-out: EC50- with Ala), the EC50 was 200 µM.
`O=c1ccn([C@H]2O[C@@H](COP(=O)(O)O)[C@H](O)[C@@H]2O)c(=O)[nH]1` (stereo in doubt) [Uridine 5′-monophosphate disodium salt, reference compound]: in experiment [2], the outcome was active, the “Max resp. (ΔF/F)” value is recorded as 0.2316 ΔF/F and the “Threshold” value is 3.000 mM. Besides, in experiment [2] (hek293 cells), the “Max. resp. % of IMP” value is on record as 23.9 % of IMP.
In the case of `Nc1nc2c(ncn2[C@@H]2O[C@H](COP(=O)(O)OP(=O)(O)OP(=O)(O)O)[C@@H](O)[C@H]2O)c(=O)[nH]1` [Guanosine 5′-triphosphate], in experiment [2], the result was active, the EC50 worked out at 700 µM, the “Max resp. (ΔF/F)” value is given as 1.8075 ΔF/F and the “Threshold” value stood at 0.175 mM. In experiment [2] (hek293 cells), the “Max. resp. % of IMP” value was 145.5 % of IMP.
As to `O=P(O)(O)OP(=O)(O)OP(=O)(O)OC[C@H]1O[C@@H](n2cnc3c(O)ncnc32)[C@H](O)[C@@H]1O` [inosine triphosphate (ITP), inosine triphosphate, reference compound], in experiment [2] (read-out: EC50- with Ala), the EC50 was 80 µM.
With `Nc1nc2c(ncn2[C@H]2C[C@H](O)[C@@H](COP(=O)(O)O)O2)c(=O)[nH]1` [2′-Deoxyguanosine 5′-monophosphate], the result in experiment [2] (+Alanine (20 mM)) was active. In addition, the “Max. resp. % of IMP” value in experiment [2] (setting [5]) was 61.2 % of IMP. Also, in experiment [2] (setting [6]), the “Threshold” value came to 0.060 mM.
For `O=P(O)(O)OC[C@H]1O[C@@H](n2cnc3c(Cl)ncnc32)[C@H](O)[C@@H]1O` [6-chloropurineriboside-5′-O-monophosphate], in experiment [2] (setting [3]), the EC50 stood at 2 µM. In addition, in experiment [2] (setting [6]), the “Threshold” value is 0.0005 mM.
In the case of `O=P(O)(O)OC[C@H]1O[C@@H](n2cnc3c(Cl)ncnc32)C(O)C1O` (stereo partly shown) [6-Chloropurineriboside-5′-O-monophosphate], in experiment [2], the result was active, the “Max resp. (ΔF/F)” value was 1.5325 ΔF/F and the “Threshold” value is 0.0005 mM. For the same compound, in experiment [2] (hek293 cells), the “Max. resp. % of IMP” value is reported as 123.3 % of IMP. In addition, the EC50 in experiment [2] (setting [3]) is 2 µM.
For the compound `O=P(O)(O)OC[C@H]1O[C@@H](n2cnc3c2ncn2ccnc32)C[C@@H]1O` [2′-Deoxy-1,N6-ethenoadenosine-5′-O-monophosphate], in experiment [2], the outcome was active, the “Max resp. (ΔF/F)” value is given as 0.87 ΔF/F and the “Threshold” value is listed as 0.05 mM. Moreover, the “Max. resp. % of IMP” value in experiment [2] (hek293 cells) was 70.0 % of IMP.
As to `Nc1ncnc2c1ncn2C1OC(COP(=O)(O)OS(=O)(=O)O)C(O)C1O` (stereo not shown) [Adenosine 5′-phosphosulfate sodium salt, Adenosine 5′-phosphosulfate], in experiment [2], the “Max resp. (ΔF/F)” value is recorded as 0.8658 ΔF/F and the “Threshold” value is on record as 0.008 mM. Also, the “Max. resp. % of IMP” value in experiment [2] (hek293 cells) is given as 89.4 % of IMP.
For the compound `Nc1nc2c(ncn2[C@@H]2O[C@H](COP(=O)(O)O)[C@@H](O)[C@H]2O)c(=S)[nH]1` [6-thioguanosine-5′-O-monophosphate], the “Threshold” value in experiment [2] is 0.0002 mM.
With `NC(=O)c1ncn(C2OC(COP(=O)(O)O)C(O)C2O)n1` (stereo not shown) [Ribavirin 5′-Monophosphate], in experiment [2], the result was active, the “Max resp. (ΔF/F)” value was 1.5294 ΔF/F and the “Threshold” value was determined as 0.175 mM. For the same compound, in experiment [2] (hek293 cells), the “Max. resp. % of IMP” value was 158.0 % of IMP. Moreover, the EC50 in experiment [2] (setting [3]) was determined as 700 µM.
As to `Nc1nc2c(nc(Br)n2[C@@H]2O[C@H](COP(=O)(O)O)[C@@H](O)[C@H]2O)c(=O)[nH]1` [8-Bromoguanosine-5′-O-monophosphate], in experiment [2], the result was active, the “Max resp. (ΔF/F)” value was 0.375 ΔF/F and the “Threshold” value is given as 1 mM. In experiment [2] (hek293 cells), the “Max. resp. % of IMP” value is 30.2 % of IMP.
On to `Nc1nc2c(ncn2[C@H]2CC(O)[C@@H](COP(O)(O)=S)O2)c(=O)[nH]1` (stereo in doubt) [2′-Deoxyguanosine-5′-O-monophosphorothioate], for which, in experiment [2], the outcome was active, the EC50 is 10 µM, the “Max resp. (ΔF/F)” value is 1.0775 ΔF/F and the “Threshold” value is 0.0025 mM. The “Max. resp. % of IMP” value in experiment [2] (hek293 cells) is given as 86.7 % of IMP.
Take “2′-/3′-O-(N′-Methyl-anthraniloyl) adenosine-5′-O-monophosphate sodium salt”: in experiment [2] (setting [4]), the “Max resp. (ΔF/F)” value was 1.915 ΔF/F. Further, the half-maximal effective concentration (EC50) in experiment [2] (setting [3]) turned out to be 10 µM. Further, in experiment [2] (setting [5]), the “Max. resp. % of IMP” value is recorded as 154.1 % of IMP. The “Threshold” value in experiment [2] (setting [6]) was determined as 0.0025 mM.
With `CNc1ccccc1C(=O)O[C@@H]1[C@H](O)[C@@H](COP(=O)(O)O)O[C@H]1n1cnc2c(=O)[nH]c(N)nc21`, in experiment [2] (+Alanine (20 mM)), the result was active.
`O=P(O)(O)OC[C@H]1O[C@@H](n2cnc3cncnc32)[C@H](O)[C@@H]1O` [Purine riboside-5′-O-monophosphate, reference compound]: in experiment [2], the outcome was active and the “Max resp. (ΔF/F)” value was 2.0266 ΔF/F. Besides, the “Max. resp. % of IMP” value in experiment [2] (hek293 cells) is 209.3 % of IMP. In addition, the EC50 in experiment [2] (setting [3]) worked out at 20 µM. Moreover, the “Threshold” value in experiment [2] (setting [6]) is on record as 0.005 mM.

Source of the values: US11185100B2 (priority 2014, dated 2021).
